Laboratory results as given in US20120157451A1, “RAF INHIBITOR COMPOUNDS AND METHODS OF USE THEREOF” (GENENTECH, INC, priority 2009, published 2012).

Legend:
V600E full-length B-Raf = target: T1, V600E full-length B-Raf (Homo sapiens, UniProt P15056, V600E); assay: B-Raf IC50 assay (incorporation of radiolabeled phosphate from [γ-33P]ATP into FSBA-modified wild-type MEK); type: biochemical
T1 construct: made in house; host or cells: Sf9 insect cells (baculovirus)
Description: Determining the activity of Raf in the sample is possible by a number of direct and indirect detection methods (US 2004/0082014). Activity of human recombinant B-Raf protein may be assessed in vitro by assay of the incorporation of radio labeled phosphate to recombinant MAP kinase (MEK), a known physiologic substrate of B-Raf, according to US 2004/0127496 and WO 03/022840.
Activity of human recombinant B-Raf protein may be assessed in vitro by assay of the incorporation of radio labeled phosphate to recombinant MAP kinase (MEK), a known physiologic substrate of B-Raf, according to US 2004/0127496 and WO 03/022840. Catalytically active human recombinant B-Raf protein is obtained by purification from sf9 insect cells infected with a human B-Raf recombinant baculovirus expression vector.
Incubations were carried out at 22° C. in a Costar 3365 plate (Corning). Prior to the assay, the B-Raf and FSBA-MEK were preincubated together in assay buffer at 1.5× (20 μL of 30 nM and 1.5 μM, respectively) for 15 minutes, and the assay was initiated by the addition of 10 μL of 10 μM ATP. Following the 60-minute incubation, the assay mixtures were quenched by the addition of 100 μL of 25% TCA, the plate was mixed on a rotary shaker for 1 minute, and the product was captured on a Perkin-Elmer GF/B filter plate using a Tomtec Mach III Harvester. After sealing the bottom of the plate, […] of Bio-Safe II (Research Products International) scintillation cocktail were added to each well and the plate was top-sealed and counted in a Topcount NXT (Packard).

[1] = system: basal ERK1/2 phosphorylation in Malme-3M cells; assay: Cellular ERK 1/2 phosphorylation assay; type: cell-based; conditions: Homo sapiens, 1 hour incubation, pERK normalized to total ERK, representative data of multiple tests
Method: Inhibition of basal ERK1/2 phosphorylation was determined by the following in vitro […], which comprises incubating cells with a compound of Formula I for 1 hour and quantifying the fluorescent pERK signal on fixed cells and normalizing to total ERK signal.
Materials and Methods: Malme-3M cells were obtained from ATCC and grown in RPMI-1640 supplemented with 10% fetal bovine serum. Cells were plated in 96-well plates at 24,000 cells/well and allowed to attach for 16-20 hours at 37° C., 5% CO2. The media was removed, and DMSO-diluted compounds were added in RPMI-1640 at a final concentration of 1% DMSO. The cells were incubated with the compounds for 1 hour at 37° C., 5% CO2. The cells were washed with PBS and fixed in 3.7% formaldehyde in PBS for 15 minutes. This was followed by washing in PBS/0.05% Tween20 and permeabilizing in −20° C. 100% MeOH for 15 minutes. Cells were washed in PBS/0.05% Tween20 then blocked in Odyssey blocking buffer (LI-COR Biosciences) for 1 hour. Antibodies to phosphorylated ERK (1:400, Cell Signaling #9106, monoclonal) and total ERK (1:400, Santa Cruz Biotechnology #sc-94, polyclonal) were added to the cells and incubated 16-20 hours at 4° C. After washing with PBS/0.05% Tween20, the cells were incubated with fluorescently-labeled secondary antibodies (1:1000 goat anti-rabbit IgG-IRDye800, Rockland and 1:500 goat anti-mouse IgG-Alexa Fluor 680, Molecular Probes) for an additional hour. Cells were then washed and analyzed for fluorescence at both wavelengths using the Odyssey Infrared Imaging System (LI-COR Biosciences). Phosphorylated ERK signal was normalized to total ERK signal.

[2] = 4 μM ATP, 60-minute incubation, representative data of multiple tests

T1 sequence (P15056 whole entry V600E): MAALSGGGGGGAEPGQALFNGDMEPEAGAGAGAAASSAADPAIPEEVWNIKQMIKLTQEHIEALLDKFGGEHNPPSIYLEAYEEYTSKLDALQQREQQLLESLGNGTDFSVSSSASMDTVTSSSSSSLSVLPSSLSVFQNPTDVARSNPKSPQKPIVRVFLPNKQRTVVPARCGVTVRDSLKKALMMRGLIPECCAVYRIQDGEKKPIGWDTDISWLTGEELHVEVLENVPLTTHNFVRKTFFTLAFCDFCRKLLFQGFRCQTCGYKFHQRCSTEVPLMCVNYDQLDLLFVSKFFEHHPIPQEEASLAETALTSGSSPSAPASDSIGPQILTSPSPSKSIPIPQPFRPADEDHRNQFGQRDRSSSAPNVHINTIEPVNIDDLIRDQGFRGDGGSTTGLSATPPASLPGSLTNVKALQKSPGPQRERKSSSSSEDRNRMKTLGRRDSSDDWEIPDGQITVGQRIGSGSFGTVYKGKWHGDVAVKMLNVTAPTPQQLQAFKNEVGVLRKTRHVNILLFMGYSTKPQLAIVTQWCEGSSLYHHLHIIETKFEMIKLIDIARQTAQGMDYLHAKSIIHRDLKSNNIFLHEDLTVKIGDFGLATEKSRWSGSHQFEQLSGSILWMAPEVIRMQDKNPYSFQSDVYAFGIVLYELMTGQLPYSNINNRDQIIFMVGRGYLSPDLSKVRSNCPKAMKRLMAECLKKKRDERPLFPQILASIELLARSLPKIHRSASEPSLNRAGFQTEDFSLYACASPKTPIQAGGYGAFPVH

Compound | IC50 (V600E full-length B-Raf; [2]) [µM] | IC50 (V600E full-length B-Raf; bound stated) [µM] | IC50 [1] [µM]
CCCS(=O)(=O)Nc1ccc(F)c(C(=O)Nc2cnc3cc(N4CCCC4)nn3c2)c1F [Example 17, 2,6-difluoro-3-(propylsulfonamido)-N-(2-(pyrrolidin-1-yl)pyrazolo[1,5-a]pyrimidin-6-yl)benzamide] | 0.367 |  | 0.664
COc1cc2ncc(NC(=O)c3c(F)ccc(NS(=O)(=O)N4CCCC4)c3F)cn2n1 [Example 24, 2,6-difluoro-N-(2-methoxypyrazolo [1,5-a]pyrimidin-6-yl)-3-(pyrrolidine-1-sulfonamido) benzamide] | 0.26 | < 0.3 | 0.382
CCCS(=O)(=O)Nc1ccc(F)c(C(=O)Nc2cnc3cc(OCCOC)nn3c2)c1Cl [Example 34, 2-chloro-6-fluoro-N-(2-(2-methoxyethoxy)pyrazolo[1,5-a]pyrimidin-6-yl)-3-(propylsulfonamido) benzamide] | 0.0461 | < 0.15 | 0.126

Stronger by IC50 (V600E full-length B-Raf; [2]), values ahead:

IC50 (V600E full-length B-Raf; [2]) [µM] | IC50 (V600E full-length B-Raf; bound stated) [µM] | Compound | IC50 [1] [µM]
0.0147 | < 0.15 | CCCS(=O)(=O)Nc1ccc(F)c(C(=O)Nc2cnc3cc(-c4cccnc4)nn3c2)c1F [Example 10, 2,6-difluoro-3-(propylsulfonamido)-N-(2-(pyridin-3-yl)pyrazolo[1,5-a]pyrimidin-6-yl)benzamide] | 0.0267
0.00778 | < 0.15 | COc1cc2ncc(NC(=O)c3c(Cl)ccc(NS(=O)(=O)CCCF)c3F)cn2n1 [Example 22, 6-chloro-2-fluoro-3-(3-fluoropropyl-sulfonamido)-N-(2-methoxypyrazolo [1,5-a]pyrimidin-6-yl)benzamide] | 0.0428
0.00409 | < 0.15 | CCCS(=O)(=O)Nc1ccc(F)c(C(=O)Nc2cnc3cc(-c4cccc(N5CCN(C)CC5)c4)nn3c2)c1F [Example 11, 2,6-difluoro-N-(2-(3-(4-methylpiperazin-1-yl)phenyl)pyrazolo[1,5-a]pyrimidin-6-yl)-3-(propylsulfonamido)benzamide] | 0.00955
